Test results as given in US20240383915A1, “OXAZEPINE COMPOUNDS AND USES THEREOF IN THE TREATMENT OF CANCER” (Genentech, Inc., priority 2021, published 2024).
pIC50: −log10 of the molar value.

What was measured:
SW480 cells = assay: SW480 proliferation assay; format: cell-based; settings: Homo sapiens, SW480, SW480; read-out: SW480 Prolif IC50 (G12V)
PC-9 cells = assay: PC9 proliferation assay; format: cell-based, human; settings: Homo sapiens, PC-9, PC9; read-out: PC9 Prolif IC50 (G12V)
KRas = KRas (Homo sapiens (Human), UniProt P01116); assay: KRas GDP HTRF (BODIPY-GDP exchange TR-FRET); format: biochemical
Sequence of KRas (P01116-2 other isoform, or with tags, fused parts or gaps): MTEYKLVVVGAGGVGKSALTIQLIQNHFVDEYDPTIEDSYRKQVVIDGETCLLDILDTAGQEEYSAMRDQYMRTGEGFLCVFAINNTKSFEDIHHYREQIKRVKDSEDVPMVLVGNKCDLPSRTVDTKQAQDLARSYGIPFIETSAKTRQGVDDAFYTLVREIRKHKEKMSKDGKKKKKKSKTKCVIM
Outline: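 Inhibition of SOS1-mediated exchange of BODIPY-GDP on KRAS G12D, started with 3 nM recombinant human SOS1 and 300 nM BODIPY-GDP and read after 60 min. TR-FRET excitation 337 nm, ratio 520/490 nm ×10,000. IC50 from 4-parameter Hill fit of normalized data.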

KRas(G12V) = KRas(G12V) (Homo sapiens (Human), UniProt P01116, G12V); assay: KRas(G12V) GDP HTRF (BODIPY-GDP exchange TR-FRET); format: biochemical
Sequence of KRas(G12V) (P01116-2 other isoform, or with tags, fused parts or gaps G12V): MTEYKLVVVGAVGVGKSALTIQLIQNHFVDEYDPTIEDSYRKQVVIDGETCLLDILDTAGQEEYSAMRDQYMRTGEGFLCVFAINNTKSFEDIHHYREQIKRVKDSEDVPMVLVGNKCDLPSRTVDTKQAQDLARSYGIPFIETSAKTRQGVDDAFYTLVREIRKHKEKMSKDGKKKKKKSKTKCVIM

Q: With `COC(C)(C)COc1nc2c3c(c(Cl)c(-c4nc(N)cc(C)c4C(F)(F)F)c(F)c3n1)OCCN2[C@H](C)c1cccnc1N` (atropisomer, axis not shown) [Example 110a, 6-((R)-4-((R)-1-(2-aminopyridin-3-yl)ethyl)-8-chloro-10-fluoro-2-(2-methoxy-2-methylpropoxy)-5,6-dihydro-4H-[1,4]oxazepino[5,6,7-de]quinazolin-9-yl)-4-methyl-5-(trifluoromethyl)pyridin-2-amine] as the compound, how does the pIC50 (SW480 cells) read?
A: The pIC50 was 7.01.

Q: What about the pIC50 (PC-9 cells) of the same compound?
A: The pIC50 was 4.96.

Q: With `Cc1cc(N)nc(-c2c(Cl)c3c4c(nc(OC[C@H]5CC[C@@H]6CO[C@H](C)CN56)nc4c2F)N([C@H](C)c2cccnc2N)CCO3)c1C(F)(F)F` (atropisomer, axis not shown; (aR)) [Example 93d, 6-((R)-4-((R)-1-(2-aminopyridin-3-yl)ethyl)-8-chloro-10-fluoro-2-(((3R,6R,8aR)-3-methylhexahydro-1H-pyrrolo[2,1-c][1,4]oxazin-6-yl)methoxy)-5,6-dihydro-4H-[1,4]oxazepino[5,6,7-de]quinazolin-9-yl)-4-methyl-5-(trifluoromethyl)pyridin-2-amine] as the compound, how does the pIC50 (KRas) read?
A: The pIC50 was 10.07.

Q: And the pIC50 (SW480 cells)?
A: Its pIC50 is 8.96.

Q: What about the pIC50 (KRas(G12V)) of the same compound?
A: The pIC50 was 10.15.

Q: With `Cc1c(F)c(N)cc(-c2c(Cl)c3c4c(nc(OC[C@@]56CCCN5C[C@H](F)C6)nc4c2F)N([C@H](C)c2cccnc2N)CCO3)c1C(F)(F)F` (atropisomer, axis not shown; (aS)) [Example 76a, 3-((R)-1-(9-((S)-5-amino-4-fluoro-3-methyl-2-(trifluoromethyl)phenyl)-8-chloro-10-fluoro-2-(((2R,7aS)-2-fluorotetrahydro-1H-pyrrolizin-7a(5H)-yl)methoxy)-5,6-dihydro-4H-[1,4]oxazepino[5,6,7-de]quinazolin-4-yl)ethyl)pyridin-2-amine] as the compound, how does the pIC50 (KRas) read?
A: The pIC50 was 9.99.

Q: And the pIC50 (SW480 cells)?
A: The pIC50 was 8.72.

Q: What about the pIC50 (KRas(G12V)) of the same compound?
A: The pIC50 was 10.05.

Q: What does the source list for `Cc1cc(N)nc(-c2c(Cl)c3c4c(nc(OC[C@@H]5CC[C@H]6COCCN65)nc4c2F)N([C@H](C)c2nccnc2N)CCO3)c1C(F)(F)F` (atropisomer, axis not shown; (aS)) [Example 104a, 3-((R)-1-((R)-9-(6-amino-4-methyl-3-(trifluoromethyl)pyridin-2-yl)-8-chloro-10-fluoro-2-(((6S,8aS)-hexahydro-1H-pyrrolo[2,1-c][1,4]oxazin-6-yl)methoxy)-5,6-dihydro-4H-[1,4]oxazepino[5,6,7-de]quinazolin-4-yl)ethyl)pyrazin-2-amine]?
A: pIC50 (KRas): 9.35; pIC50 (SW480 cells): 7.92; pIC50 (KRas(G12V)): 9.82

Q: With `Cc1cc(N)nc(-c2cc3ncnc4c3c(c2Cl)OCCN4C)c1C(F)(F)F` [Example 24, 6-(8-chloro-4-methyl-5,6-dihydro-4H-[1,4]oxazepino[5,6,7-de]quinazolin-9-yl)-4-methyl-5-(trifluoromethyl)pyridin-2-amine] as the compound, how does the pIC50 (KRas) read?
A: The pIC50 was 4.52.

Q: What about the pIC50 (PC-9 cells) of the same compound?
A: Its pIC50 is 4.70.

Q: What about the pIC50 (KRas(G12V)) of the same compound?
A: The pIC50 was 5.36.

Q: With `Cc1cc(N)nc(-c2cc3ncnc4c3c(c2Cl)OCCN4Cc2cnc[nH]2)c1C(F)(F)F` [Example 30, 6-(4-((1H-imidazol-5-yl)methyl)-8-chloro-5,6-dihydro-4H-[1,4]oxazepino[5,6,7-de]quinazolin-9-yl)-4-methyl-5-(trifluoromethyl)pyridin-2-amine] as the compound, how does the pIC50 (KRas) read?
A: Its pIC50 is 4.46.

Q: What about the pIC50 (KRas(G12V)) of the same compound?
A: The pIC50 was 5.33.

Q: What does the source list for `Cc1cc(N)nc(-c2cc3ncnc4c3c(c2Cl)OCCN4Cc2cc(F)cnc2N)c1C(F)(F)F` [Example 31, 6-(4-((2-amino-5-fluoropyridin-3-yl)methyl)-8-chloro-5,6-dihydro-4H-[1,4]oxazepino[5,6,7-de]quinazolin-9-yl)-4-methyl-5-(trifluoromethyl)pyridin-2-amine]?
A: pIC50 (KRas): 5.55; pIC50 (KRas(G12V)): 6.36

Q: What does the source list for `Cc1cc(N)nc(-c2cc3ncnc4c3c(c2Cl)OCCN4C2CCc3c(N)cncc32)c1C(F)(F)F` (centres unmarked) [Example 37, 7-(9-(6-amino-4-methyl-3-(trifluoromethyl)pyridin-2-yl)-8-chloro-5,6-dihydro-4H-[1,4]oxazepino[5,6,7-de]quinazolin-4-yl)-6,7-dihydro-5H-cyclopenta[c]pyridin-4-amine]?
A: pIC50 (KRas): 6.57; pIC50 (KRas(G12V)): 7.28

Q: What does the source list for `Cc1cc(N)nc(-c2cc3ncnc4c3c(c2Cl)OC[C@H](CC#N)N4C)c1C(F)(F)F` [Example 43, (S)-2-(9-(6-amino-4-methyl-3-(trifluoromethyl)pyridin-2-yl)-8-chloro-4-methyl-5,6-dihydro-4H-[1,4]oxazepino[5,6,7-de]quinazolin-5-yl)acetonitrile]?
A: pIC50 (KRas): 5.31; pIC50 (KRas(G12V)): 5.70

Q: `Cc1cc(N)nc(-c2cc3ncnc4c3c(c2Cl)OCCN4Cc2cccnc2)c1C(F)(F)F` [Example 46, 6-(8-chloro-4-(pyridin-3-ylmethyl)-5,6-dihydro-4H-[1,4]oxazepino[5,6,7-de]quinazolin-9-yl)-4-methyl-5-(trifluoromethyl)pyridin-2-amine] was tested. Which pIC50 (KRas) did it give?
A: The pIC50 was 4.34.

Q: What about the pIC50 (KRas(G12V)) of the same compound?
A: Its pIC50 is 4.96.

Q: `Cc1cc(N)nc(-c2cc3ncnc4c3c(c2Cl)OCCN4Cc2cc(Cl)cnc2N)c1C(F)(F)F` [Example 52, 6-[13-[(2-amino-5-chloro-3-pyridyl)methyl]-8-chloro-10-oxa-2,4,13-triazatricyclo[7.4.1.05,14]tetradeca-1,3,5(14),6,8-pentaen-7-yl]-4-methyl-5-(trifluoromethyl)pyridin-2-amine] was tested. Which pIC50 (KRas) did it give?
A: Its pIC50 is 5.02.

Q: And the pIC50 (KRas(G12V))?
A: The pIC50 was 5.62.

Q: Which results are given for `Cc1cc(N)nc(-c2cc3nc(OCC4(N(C)C)COC4)nc4c3c(c2Cl)OCCN4Cc2cccnc2N)c1C(F)(F)F` [Example 54, 6-(4-((2-aminopyridin-3-yl)methyl)-8-chloro-2-((3-(dimethylamino)oxetan-3-yl)methoxy)-5,6-dihydro-4H-[1,4]oxazepino[5,6,7-de]quinazolin-9-yl)-4-methyl-5-(trifluoromethyl)pyridin-2-amine]?
A: pIC50 (KRas): 6.51; pIC50 (KRas(G12V)): 7.39

Q: What does the source list for `Cc1cc(N)nc(-c2cc3nc(OCC4(C)CS(=O)(=O)C4)nc4c3c(c2Cl)OCCN4Cc2cccnc2N)c1C(F)(F)F` [Example 55, 3-(((9-(6-amino-4-methyl-3-(trifluoromethyl)pyridin-2-yl)-4-((2-aminopyridin-3-yl)methyl)-8-chloro-5,6-dihydro-4H-[1,4]oxazepino[5,6,7-de]quinazolin-2-yl)oxy)methyl)-3-methylthietane 1,1-dioxide]?
A: pIC50 (KRas): 6.89; pIC50 (KRas(G12V)): 7.72

Q: With `Cc1cc(N)nc(-c2cc3ncnc4c3c(c2Cl)OCCN4Cc2ccnnc2N)c1C(F)(F)F` [Example 56, 4-((9-(6-amino-4-methyl-3-(trifluoromethyl)pyridin-2-yl)-8-chloro-5,6-dihydro-4H-[1,4]oxazepino[5,6,7-de]quinazolin-4-yl)methyl)pyridazin-3-amine] as the compound, how does the pIC50 (KRas) read?
A: Its pIC50 is 6.80.

Q: What about the pIC50 (KRas(G12V)) of the same compound?
A: The pIC50 was 7.66.

Q: How did the pIC50 (KRas) turn out when `Cc1cc(N)nc(-c2cc3ncnc4c3c(c2Cl)OCCN4Cc2c(C(F)F)ccnc2N)c1C(F)(F)F` [Example 57, 6-(4-((2-amino-4-(difluoromethyl)pyridin-3-yl)methyl)-8-chloro-5,6-dihydro-4H-[1,4]oxazepino[5,6,7-de]quinazolin-9-yl)-4-methyl-5-(trifluoromethyl)pyridin-2-amine] was run?
A: The pIC50 was 5.70.

Q: And the pIC50 (KRas(G12V))?
A: Its pIC50 is 6.57.

Q: With `CNc1cnc(N)c([C@@H](C)N2CCOc3c(Cl)c(-c4nc(N)cc(C)c4C(F)(F)F)cc4ncnc2c34)c1` [Example 58, (R)-3-(1-(9-(6-amino-4-methyl-3-(trifluoromethyl)pyridin-2-yl)-8-chloro-5,6-dihydro-4H-[1,4]oxazepino[5,6,7-de]quinazolin-4-yl)ethyl)-N5-methylpyridine-2,5-diamine] as the compound, how does the pIC50 (KRas) read?
A: The pIC50 was 7.47.

Q: And the pIC50 (KRas(G12V))?
A: Its pIC50 is 7.74.

Q: How did the pIC50 (KRas) turn out when `Cc1cc(N)nc(-c2c(Cl)c3c4c(nc(OC(C)[C@@H]5CC(F)(F)CN5C)nc4c2F)N([C@H](C)c2cccnc2N)CCO3)c1C(F)(F)F` (stereo partly drawn) [Example 71, 6-((R)-4-((R)-1-(2-aminopyridin-3-yl)ethyl)-8-chloro-2-((S)-1-((S)-4,4-difluoro-1-methylpyrrolidin-2-yl)ethoxy)-10-fluoro-5,6-dihydro-4H-[1,4]oxazepino[5,6,7-de]quinazolin-9-yl)-4-methyl-5-(trifluoromethyl)pyridin-2-amine] was run?
A: Its pIC50 is 8.18.

Q: And the pIC50 (KRas(G12V))?
A: Its pIC50 is 9.28.

Q: `Cc1cc(N)nc(-c2c(Cl)c3c4c(nc(OCCN5C6CCC5CN(C)C6)nc4c2F)N([C@H](C)c2cccnc2N)CCO3)c1C(F)(F)F` [Example 94, 6-((9R)-4-((R)-1-(2-aminopyridin-3-yl)ethyl)-8-chloro-10-fluoro-2-(2-(3-methyl-3,8-diazabicyclo[3.2.1]octan-8-yl)ethoxy)-5,6-dihydro-4H-[1,4]oxazepino[5,6,7-de]quinazolin-9-yl)-4-methyl-5-(trifluoromethyl)pyridin-2-amine] was tested. Which pIC50 (KRas) did it give?
A: The pIC50 was 9.76.

Q: What about the pIC50 (KRas(G12V)) of the same compound?
A: Its pIC50 is 10.15.

Q: `Cc1cc(N)nc(-c2c(Cl)c3c4c(nc(OCC56C[C@H](F)CN5C[C@H](F)C6)nc4c2F)N([C@H](C)c2cccnc2N)CCO3)c1C(F)(F)F` (stereo partly drawn) [Example 98b, 6-((9R)-4-((R)-1-(2-aminopyridin-3-yl)ethyl)-8-chloro-2-(((2R,6S)-2,6-difluorotetrahydro-1H-pyrrolizin-7a(5H)-yl)methoxy)-10-fluoro-5,6-dihydro-4H-[1,4]oxazepino[5,6,7-de]quinazolin-9-yl)-4-methyl-5-(trifluoromethyl)pyridin-2-amine] was tested. Which pIC50 (KRas) did it give?
A: Its pIC50 is 9.90.

Q: And the pIC50 (KRas(G12V))?
A: Its pIC50 is 10.00.

Q: Which results are given for `Cc1cc(N)nc(-c2c(Cl)c3c4c(nc(OC[C@@]56CCCN5C[C@H](F)C6)nc4c2F)N([C@H](C)c2cc(Cl)cnc2N)CCO3)c1C(F)(F)F` [Example 131, 6-(4-((R)-1-(2-amino-5-chloropyridin-3-yl)ethyl)-8-chloro-10-fluoro-2-(((2R,7aS)-2-fluorotetrahydro-1H-pyrrolizin-7a(5H)-yl)methoxy)-5,6-dihydro-4H-[1,4]oxazepino[5,6,7-de]quinazolin-9-yl)-4-methyl-5-(trifluoromethyl)pyridin-2-amine]?
A: pIC50 (KRas): 9.60; pIC50 (KRas(G12V)): 9.85
